Assay results published in publication PMC11249239 (PLOS ONE, 2024).

Columns and labels:
Assay type in all cases: cell-based
[1] = test system: MCF7 cells; test: Radiation clonogenic survival assay, MCF7; details: 0.3 μM for 24 h then graded γ-radiation, DMSO control 1.5 Gy
Method: Logarithmically growing cells were treated with vehicle (0.1% Dimethyl Sulfoxide) or SP-1-303 (0.3 μM) for 24 h followed by sham or γ-radiation using a Mark-30 irradiator with a 137Cs source at a fixed dose rate of 2.71 Gy/min. Cells were exposed to graded doses at room temperature. After 10–14 days, cells were fixed and stained with crystal violet, and colonies were counted. The surviving fractions of treated cells were normalized using the plating efficiencies of untreated controls. Radiation survival curves were generated by fitting to the single-hit, multitarget model.

[2] = test system: p-ATM/S1981; test: Western blot, phosphorylation of ATM; details: MCF7 and MDA-MB-231; 1 μM; within 0.5 h
From the text: (§1) Following treatment of cells with SP-1-303 over a time course, total or nuclear proteins were extracted and analyzed on 4–20% trisglycine gradient sodium dodecyl sulfate polyacrylamide gel electrophoresis (SDS-PAGE). Subsequently, membranes were probed with antibodies targeting specific proteins in accordance with the manufacturers’ protocols, including ATM (ab78), p-BRCA1 (ab90528), BRCA1 (ab191042), p-p53/S15 (ab1431), acetylated H3K9 (ab12179) from Abcam, as well as p-ATM (# 5883) and p53 (#9282) from Cell Signaling, α-tubulin (T6793) and β-actin (A3854) from Sigma-Aldrich, ER-α (cat# MA1-80216, Invitrogen) and HDAC2 (BML-SA402. Enzo). Protein images were captured using ECL Prime Western Blotting Detection Reagents (Cat#. RPN2232, Amersham) and the Amersham Imager 600. For immunofluorescent analysis, formalin fixed cells were permeabilized with 0.1% Triton X-100 in TBS for 10 minutes at room temperature, followed by blocking with 1% Blocker BSA for 15 minutes at room temperature. Cells were then probed with a phospho-ATM monoclonal antibody (MA5-15185) and DyLight 488 goat anti-mouse IgG secondary antibody at room temperature. Actin was stained with DyLight 554 phalloidin, while nuclei were stained with 4’,6-diamidino-2-phenylindole dye (DAPI). Images were captured using a Nikon Epi Fluorescent microscopy.

[3] = test system: ER-α; test: Western blot of nuclear extracts, ER-α expression; details: MCF7; 1 μM; from 2h to 6h
From the text: as §1

[4] = test system: phosphorylated p53; test: Western blot, phosphorylated p53; details: 1 μM
From the text: as §1

Cc1[nH]c2ccccc2c1C1=C(c2c(C)[nH]c3ccccc23)C(=O)N(CCCCCCC(=O)NO)C1=O [SP-1-303]
D0, radiation clonogenic survival [1]: 1.3 Gy
phosphorylation of ATM/S1981 [2]: significantly enhanced
ER-α expression [3]: gradual reduction
phosphorylated p53 ([4]; MCF7, within 1h to 2h): induction
phosphorylated p53 ([4]; MDA-MB-231): no phosphorylated p53
